Assay results as given in patent US12605517B1 (Belhaven BioPharma Inc., priority 2024, dated 2026).

Legend:
[1] = Human Phase 1 clinical study, plasma epinephrine pharmacokinetics and bioavailability; format: in vivo; details: for Tmax: read-out: median Tmax (converted)
[2] = Study 101, plasma epinephrine pharmacokinetics; format: in vivo; details: human, im
Description: Each patient was provided each treatment of the trial with 72-hour washout periods between each treatment, beginning with a 3.5 mg intranasal dose, followed by a 0.3 mg intramuscular dose, followed by a 0.5 mg intramuscular dose, and concluding with a 5.5 mg intranasal dose, with a safety follow-up performed 3 to 5 days after the final dose was administered. The primary endpoints of the study were pharmacokinetic measurements and assessments of comparative bioavailability, while the secondary endpoints were safety concerns and pharmacodynamic assessments.

Cmax ([1]; 0.3 mg IM, read-out: mean baseline-corrected Cmax): 0.184 ng/mL | Tmax ([1]; 0.3 mg IM): 48 min | Tmax ([1]; 0.5 mg IM): 48 min | Tmax ([2]; 0.3 mg, 0.3 mg IM, read-out: Tmax (Mean) (converted)): 41.4 min | Tmax ([2]; 0.3 mg, 0.3 mg IM, read-out: Tmax (Median) (converted)): 48 min | Tmax ([2]; 0.5 mg, 0.5 mg IM, read-out: Tmax (Mean) (converted)): 40.9 min | Tmax ([2]; 0.5 mg, 0.5 mg IM, read-out: Tmax (Median) (converted)): 48 min
SMILES: CNC[C@H](O)c1ccc(O)c(O)c1 [Epinephrine IM, epinephrine]
